Source: paper PMC12470768, “Mentha rotundifolia, a Source of Amoebicidal Agents Against Naegleria fowleri” (International Journal of Molecular Sciences, 2025)

Tests used:
[1] = tested on: N. fowleri ATCC® 30808™ trophozoites; assay: In vitro amoebicidal activity against N. fowleri trophozoites (alamarBlue), strain ATCC 30808; format: cell-based, Naegleria fowleri; details: for IC50 / N. fowleri ATCC 30808 IC50: mean ± SD; for N. fowleri ATCC 30808 SI (CC50/IC50): selectivity index vs murine macrophages J774
Method: (§1) The in vitro activity of the tested compounds against Naegleria fowleri trophozoites was evaluated using two clinical strains obtained from the American Type Culture Collection (ATCC® 30808™ and ATCC® 30215™). Trophozoites were cultured axenically at 37 °C in 2% (w/v) Bactocasitone medium (Thermo Fisher Scientific, Madrid, Spain), supplemented with 10% (v/v) fetal bovine serum (FBS), […] penicillin G sodium salt, and 0.5 mg/mL streptomycin sulfate (Sigma-Aldrich, Madrid, Spain). For cytotoxicity assessment, murine macrophages from the J774A.1 cell line (ATCC® TIB-67) were cultured in Dulbecco’s Modified Eagle’s Medium (DMEM) supplemented with 10% (v/v) FBS and 10 μg/mL gentamicin sulfate (Sigma-Aldrich, Madrid, Spain). The macrophages were maintained at 37 °C in a 5% CO2 atmosphere.
(§2) The trophocidal activity of the compounds was evaluated using the alamarBlue® colorimetric assay. N. fowleri trophozoites were seeded in duplicate in a 96-well microtiter plate at a concentration of 2 × 10^5 cells/mL and incubated for adhesion in Bactocasitone medium (2% v/w) (Thermo Fisher Scientific, Madrid, Spain), supplemented with 10% (v/v) fetal bovine serum (FBS), 0.3% penicillin G sodium salt, and 0.5 mg/mL streptomycin sulfate (Sigma-Aldrich, Madrid, Spain). Different concentrations of the evaluated compounds, prepared in fresh Bactocasitone medium, were added to the wells (50 µL per well). The negative control consisted of trophozoites incubated with the medium alone. After adding 10 µL of alamarBlue® reagent, the plates were incubated at 37 °C for 48 h with slight agitation. The data were analyzed using nonlinear regression with GraphPad Prism 9 software to determine the IC50 and IC90 values, which were then used for further studies on PCD [10].

[2] = tested on: N. fowleri ATCC® 30215™ trophozoites; assay: In vitro amoebicidal activity against N. fowleri trophozoites (alamarBlue), strain ATCC 30215; format: cell-based, Naegleria fowleri; details: trophozoite stage; for IC50: Naegleria fowleri, ATCC30215, 48 h, mean ± SD; for N. fowleri ATCC 30215 SI (CC50/IC50): selectivity index vs murine macrophages J774
Method: as §1, §2

[3] = tested on: N. fowleri ATCC® 30808™ cyst stage; assay: In vitro cysticidal activity against N. fowleri cysts (alamarBlue), strain ATCC 30808; format: cell-based, Naegleria fowleri; details: for IC50: Naegleria fowleri, ATCC30808, mean ± SD
Method: (§3) Following the assays against trophozoites, the compounds were further evaluated for their activity against the cyst stage of N. fowleri (ATCC® 30808™ and ATCC® 30215™). To induce cyst formation, the trophozoites were centrifuged, resuspended in MYAS medium, and incubated under slight agitation at room temperature for 10 days. After this, mature cysts were harvested, pretreated with 0.5% SDS, and seeded in a 96-well microtiter plate at 2 × 10^5 cells/mL. The drugs were tested in serial dilutions, and after 24 h of incubation at 37 °C, the medium was replaced with fresh Bactocasitone medium. The colorimetric alamarBlue® assay was used to assess cyst viability, with 10 µL of reagent added to each well. The plates were incubated for an additional 72 h at 37 °C, and fluorescence was measured using the EnSpire® Multimode Plate Reader (PerkinElmer, Madrid, Spain). The results were compared to a negative control (untreated cysts) and a positive control (amphotericin B and miltefosine). The IC50 values were determined through nonlinear regression analysis.

[4] = tested on: N. fowleri ATCC® 30215™ cyst stage; assay: In vitro cysticidal activity against N. fowleri cysts (alamarBlue), strain ATCC 30215; format: cell-based; details: Naegleria fowleri, ATCC30215, mean ± SD
Method: as §3

[5] = In vitro cytotoxicity on murine macrophages (alamarBlue); format: cell-based; details: mouse, J774A.1 murine macrophage cell line (ATCC TIB-67), mean ± SD
Method: as §1
The cytotoxicity of the compounds was assessed against the murine macrophage cell line J774A.1 (ATCC® TIB-67™). Cells were maintained at 37 °C in a 5% CO2 atmosphere in DMEM medium. In the assay, different concentrations of the compounds were added to the cells in a 96-well microtiter plate, and after 24 h of incubation, 10 µL of alamarBlue® reagent was added. The fluorescence intensity was measured using the EnSpire® Multimode Plate Reader (PerkinElmer, Madrid, Spain). The cytotoxic concentration required to reduce cell viability by 50% (CC50) was determined through nonlinear regression analysis using GraphPad Prism 9 software. The results were compared with those obtained against trophozoites to calculate the selectivity index (S.I.) for N. fowleri.

[6] = tested on: N. fowleri trophozoites; assay: Intracellular ATP levels (CellTiter-Glo); format: cell-based, Naegleria fowleri; details: treated with IC90, 24 h; negative control set as 100% ATP
Method: (§4) To evaluate the induction of PCD, N. fowleri strains ATCC® 30808™ and ATCC® 30215™ were treated with the IC90 concentration of the compounds 7 and 10 for 24 h at 37 °C. After incubation, specific fluorescent markers were used to assess various detectable metabolic events, following the manufacturers’ instructions for each assay. Amphotericin B was used as a positive control, and untreated amoebae served as a negative control. Fluorescence imaging was performed using EVOS M5000 Cell Imaging System (Life Technologies, Madrid, Spain) and confocal microscope Leica DMI 4000 B equipped with Leica Application Suite X software version 3.5.5.19976 and Leica HC PL APO 63x/1.40 OIL CS2 objective (Leica Microsystems, Wetzlar, Germany). The fluorescence obtained was expressed as mean ± standard deviation from at least three independent experiments.
Adenosine triphosphate (ATP) production was quantified using the CellTiter-Glo® luminescent cell viability assay (Promega, Madrid, Spain). Amoebae were treated with the compounds, and an equal volume of reagent was added per well. Following cell lysis, the emitted luminescence, which is directly proportional to ATP content, was measured using the EnSpire® Multimode Plate Reader (PerkinElmer, Madrid, Spain). […]

[7] = tested on: N. fowleri trophozoites; assay: Chromatin condensation (Hoechst 33342 / propidium iodide staining); format: cell-based, Naegleria fowleri; details: IC90, 24 h; for chromatin condensation (Hoechst 33342 fluorescence): compound 7 on ATCC 30808, compound 10 on ATCC 30215, amphotericin B on both
Method: as §4
To evaluate the chromatin condensation, cells were stained with Hoechst 33,342 (1 µM) and propidium iodide (PI) (1 µM) for 20 min in the dark. Hoechst 33,342 binds to condensed chromatin in apoptotic cells and emits blue fluorescence, while PI enters cells with compromised membranes, indicative of late apoptosis or necrosis, and binds to DNA, emitting red fluorescence. […] Untreated cells were included as negative controls to establish baseline fluorescence levels.

[8] = tested on: N. fowleri trophozoites; assay: Plasma membrane permeability (SYTOX Green); format: cell-based, Naegleria fowleri; details: IC90, 24 h; compound 7 on ATCC 30808, compound 10 on ATCC 30215, amphotericin B on both
Method: as §4
After treatment, SYTOX™ Green nucleic acid stain (Life Technologies, Madrid, Spain) was added to each well at a final concentration of 1 μg/mL and incubated for 15 min in the dark. […] In contrast, viable cells with intact membranes exclude the dye and remain non-fluorescent. Untreated trophozoites were used as negative controls.

[9] = tested on: N. fowleri trophozoites; assay: Mitochondrial membrane potential (JC-1); format: cell-based, Naegleria fowleri; details: IC90, 24 h; compound 7 on ATCC 30808, compound 10 on ATCC 30215
Method: as §4
Mitochondrial membrane potential (ΔΨm) was assessed using the JC-1 dye (1,1′,3,3′-tetraethyl-5,5′,6,6′-tetrachloroimidacarbocyanine iodide; Cayman Chemical, Madrid); following treatment, cells were harvested by centrifugation at 2500 rpm for 10 min and resuspended in JC-1 assay buffer. […] In cells with depolarized mitochondria, JC-1 remains in its monomeric form, emitting green fluorescence (emission at ~535 nm), indicating mitochondrial damage and a loss of ΔΨm.

[10] = tested on: N. fowleri trophozoites; assay: Intracellular reactive oxygen species (CellROX Deep Red); format: cell-based, Naegleria fowleri; details: IC90, 24 h; compound 7 on ATCC 30808 (p < 0.05), compound 10 on ATCC 30215 (p < 0.01)
Method: as §4
The oxidative stress induced by the generation of ROS in N. fowleri was evaluated using the CellROX® Deep Red reagent (Invitrogen, Thermo Fisher Scientific, Madrid, Spain). Following incubation, cells were stained with the dye at a final concentration of 5 μM and then incubated for an additional 30 min. The reagent enters cells in response to elevated ROS levels, emitting red fluorescence at approximately 644/665 nm. Increased fluorescence intensity indicated higher levels of ROS accumulation, reflecting elevated oxidative stress in the treated cells.

[11] = tested on: N. fowleri trophozoites; assay: Autophagic vacuole formation (monodansylcadaverine); format: cell-based, Naegleria fowleri; details: IC90, 24 h
Method: as §4
Autophagy is a vital cellular process involved in the degradation and recycling of intracellular components, often activated in response to drug exposure. To evaluate autophagic activity, trophozoites were stained with monodansylcadaverine (MDC) (Sigma-Aldrich, St. Louis, MO, USA) during 30 min in the dark. […] The dye emits a characteristic cyan-blue fluorescence, allowing the detection and qualitative analysis of autophagic vacuoles in treated cells.

[12] = tested on: N. fowleri trophozoites; assay: Cytoskeletal integrity (phalloidin-TRITC actin staining); format: cell-based, Naegleria fowleri; details: IC90; compound 7 on ATCC 30808, compound 10 on ATCC 30215
Method: as §4
Cytoskeletal disruption in treated amoebae was evaluated by staining with phalloidin conjugated to tetramethylrhodamine B isothiocyanate (phalloidin- TRITC), which binds specifically to filamentous actin, emitting red fluorescence. DAPI staining was used in parallel to visualize nuclear DNA, emitting blue fluorescence. […] Following washing with PBS, fluorescence images were captured with a 63x oil immersion objective.

[13] = Naegleria fowleri, ATCC30808, 48 h, trophozoite stage, 48 h
[14] = Naegleria fowleri, ATCC30808, trophozoites, extracts, fractions, subfractions, isolated compound and reference drugs

| Structure (SMILES) | IC50 [1, 13] [µM] | IC90 ([1]; Naegleria fowleri, ATCC30808, trophozoites, compound 7 used on ATCC 30808 (Figure 8 legend)) [µM] | N. fowleri ATCC 30808 SI (CC50/IC50) ([1]; trophozoite stage) | IC50 [2] [µM] | N. fowleri ATCC 30215 SI (CC50/IC50) [2] | IC50 [3] [µM] | N. fowleri ATCC 30808 SI (CC50/IC50), cyst stage ([3]; selectivity index vs murine macrophages J774) | IC50 [4] [µM] | CC50 at 24 h [5] [µM] | inhibition of ATP levels compared to the negative control [6] [%] | propidium iodide (red) fluorescence ([7]; compound 7 on ATCC 30808) | chromatin condensation (Hoechst 33342 fluorescence) [7] | plasma membrane integrity (SYTOX Green fluorescence) [8] | mitochondrial membrane potential (JC-1) [9] | intracellular ROS accumulation (CellROX Deep Red) [10] | autophagic vesicles (MDC staining) [11] | actin cytoskeleton (phalloidin-TRITC) [12] | IC50 [1, 14] [µg/mL] | N. fowleri ATCC 30808 IC50 ([1]; trophozoites, extracts, fractions, subfractions, isolated compound and reference drugs, listed as A) [µg/mL] | N. fowleri ATCC 30808 IC50 ([1]; trophozoites, extracts, fractions, subfractions, isolated compound and reference drugs, listed as UA (1)) [µg/mL] |
| --- | --- | --- | --- | --- | --- | --- | --- | --- | --- | --- | --- | --- | --- | --- | --- | --- | --- | --- | --- | --- |
| COC(=O)[C@]12CC[C@@H](C)[C@H](C)C1C1=CCC3[C@@]4(C)CC[C@H](OC(=O)CCC(=O)O)C(C)(C)C4CC[C@@]3(C)[C@]1(C)CC2 (stereo partly drawn) [Compound 7, 3-O-(Hemisuccinyl)-methyl ursolate] | 28.7 ± 1.8 | 39.5 | >6.11 | 29.7 ± 1.59 | >5.90 | 36.6 ± 1.49 | 4.78 | 28 ± 1.59 | > 175 | 89.5 | strong red fluorescence | clear chromatin condensation | significant membrane disruption | marked decrease in mitochondrial membrane potential | significantly increased ROS | autophagosome formation | reduced actin signal intensity |  |  |  |
| C[C@@H]1[C@H](O)[C@@H](C)/C=C/C=C/C=C/C=C/C=C/C=C/C=C/[C@H](O[C@@H]2O[C@H](C)[C@@H](O)[C@H](N)[C@@H]2O)C[C@@H]2O[C@](O)(C[C@@H](O)C[C@@H](O)[C@H](O)CC[C@@H](O)C[C@@H](O)CC(=O)O[C@H]1C)C[C@H](O)[C@H]2C(=O)O [Amphotericin B, reference compound] | 0.12 ± 0.03 |  | >1650.89 | 0.16 ± 0.01 | >1250 | 0.53 ± 0.03 |  | 0.62 ± 0.04 | > 200 |  |  | clear chromatin condensation | bright green fluorescence |  |  |  |  | 0.18 | 0.162 ± 0.002 |  |
| CCCCCCCCCCCCCCCCOP(=O)([O-])OCC[N+](C)(C)C [Miltefosine, reference compound] | 38.7 ± 4.23 |  | 3.30 | 81.6 ± 7.23 | 1.57 | 21.5 ± 2.62 |  | 37.8 ± 5.6 | 128 ± 8.85 |  |  |  |  |  |  |  |  | 12.7 ± 1.49 |  |  |
| COC(=O)[C@]12CC[C@@H](C)[C@H](C)[C@H]1C1=CC[C@@H]3[C@@]4(C)CC[C@H](O)C(C)(C)[C@@H]4CC[C@@]3(C)[C@]1(C)CC2 [Compound 2, methyl ursolate] | 88.7 ± 3.02 |  | 1.12 | 84.5 ± 6.31 |  |  |  |  | 49.6 ± 5.65 |  |  |  |  |  |  |  |  |  |  |  |
| COC(=O)[C@]12CC[C@@H](C)[C@H](C)C1C1=CCC3[C@@]4(C)CC[C@H](OC(=O)CCCC(=O)O)C(C)(C)C4CC[C@@]3(C)[C@]1(C)CC2 (stereo partly drawn) [Compound 8, 3-O-(Hemiglutaryl)-methyl ursolate] | 66.6 ± 9.25 |  | 1.24 | 38.7 ± 2.15 | 2.20 |  |  |  | 85 ± 5 |  |  |  |  |  |  |  |  |  |  |  |
| C[C@H]1[C@H](C)CC[C@]2(C(=O)O)CC[C@]3(C)C(=CC[C@@H]4[C@@]5(C)CC[C@H](O)C(C)(C)[C@@H]5CC[C@]43C)[C@H]12 [Compound 1, ursolic acid] | 142 ± 8.17 |  |  | 82.5 ± 8.43 | 0.43 |  |  |  | 35.9 ± 9.28 |  |  |  |  |  |  |  |  | 65.9 |  | 65.91 ± 3.73 |
